Reference: EP0252028A1 (priority 1986, dated 1988)

Legend:
[1] = system: Staphylococcus aureus ATCC 9144; experiment: agar diffusion test, growth inhibition zones; type: cell-based
[2] = system: Staphylococcus epidermis ATCC 14990; experiment: agar diffusion test, growth inhibition zones; type: cell-based
Sarcina lutea ATCC 9341 = experiment: agar diffusion test, growth inhibition zones; type: cell-based
[3] = system: Escherichia coli ATCC 10538; experiment: agar diffusion test, growth inhibition zones; type: cell-based
[4] = system: Streptococcus faecalis ATCC 8043; experiment: agar diffusion test, growth inhibition zones; type: cell-based
[5] = system: Salmonella tiphymurium ATCC 13311; experiment: agar diffusion test, growth inhibition zones; type: cell-based
[6] = system: Bacillus subtilis ATCC 6051; experiment: agar diffusion test, growth inhibition zones; type: cell-based
[7] = system: Enterobacter aerogenes ATCC 13047; experiment: agar diffusion test, growth inhibition zones; type: cell-based
[8] = system: Mycobacterium aurum NCTC 10437; experiment: agar diffusion test, growth inhibition zones
Method: The antitubercular activity was evaluated in in vitro tests against Mycobacterium aurum.

Candida albicans PCA6 = experiment: agar diffusion test, growth inhibition zones; type: cell-based
Candida albicans 1 = experiment: agar diffusion test, growth inhibition zones; type: cell-based
Candida albicans 2 = experiment: agar diffusion test, growth inhibition zones; type: cell-based
Candida parapsilosis = experiment: agar diffusion test, growth inhibition zones; type: cell-based
Cryptococcus albidus = experiment: agar diffusion test, growth inhibition zones; type: cell-based
Aspergillus fumigatus = experiment: agar diffusion test, growth inhibition zones; type: cell-based
Candida tropicalis = experiment: agar diffusion test, growth inhibition zones; type: cell-based
Cryptococcus neoformans = experiment: agar diffusion test, growth inhibition zones; type: cell-based
Rodutorula rubra = experiment: agar diffusion test, growth inhibition zones; type: cell-based
Torulopsis Candida = experiment: agar diffusion test, growth inhibition zones; type: cell-based
Aspergillus Niger = experiment: agar diffusion test, growth inhibition zones; type: cell-based
Aspergillus Flavus = experiment: agar diffusion test, growth inhibition zones; type: cell-based
[9] = acute toxicity (LD50) in mice; conditions: mouse, in vivo, iv; CD1 mice
Text: The nitrofurylbenzimidazoles (I) prepared via the process of the present invention are suitable for being compounded into topically administrable ointments and creams. […] Examples of typical formulations (suited for both topical application and systemic administration) are illustrated in the above-mentioned UK patents 1,072;735 and 1,094,903.

SMILES: O=[N+]([O-])c1ccc2[nH]c(-c3ccc([N+](=O)[O-])o3)nc2c1 [Es. 4, 5-nitro-2-(5'-nitro-2'-furyl)-benzimidazole]
- Growth inhibition zones [1]: 30 mm
- Growth inhibition zones [2]: 32 mm
- Growth inhibition zones (Sarcina lutea ATCC 9341): 12 mm
- Growth inhibition zones [3]: 15 mm
- Growth inhibition zones [4]: 20 mm
- Growth inhibition zones [5]: 15 mm
- Growth inhibition zones [6]: 30 mm
- Growth inhibition zones [7]: 14 mm
- Growth inhibition zones [8]: 15 mm

SMILES: Cc1ccc2[nH]c(-c3ccc([N+](=O)[O-])o3)nc2c1 [Es. 2, 5-methyl-2-(5'-nitro-2'-furyl)-benzimidazole]
- Growth inhibition zones [1]: 30 mm
- Growth inhibition zones [2]: 32 mm
- Growth inhibition zones (Sarcina lutea ATCC 9341): 12 mm
- Growth inhibition zones [3]: 13 mm
- Growth inhibition zones [4]: 23 mm
- Growth inhibition zones [5]: 12 mm
- Growth inhibition zones [6]: 30 mm
- Growth inhibition zones [7]: 16 mm
- Growth inhibition zones (Candida albicans PCA6): 32 mm
- Growth inhibition zones (Candida albicans 1): 18 mm
- Growth inhibition zones (Candida albicans 2): 33 mm
- Growth inhibition zones (Candida parapsilosis): 29 mm
- Growth inhibition zones (Cryptococcus albidus): 25 mm
- Growth inhibition zones (Aspergillus fumigatus): 13 mm
- Growth inhibition zones [8]: 13 mm

SMILES: O=[N+]([O-])c1ccc(-c2nc3cc(C(F)(F)F)ccc3[nH]2)o1 [Es. 5, 5-trifluoromethyl-2-(5'-nitro-2'-furyl)-benzimidazole]
- Growth inhibition zones [1]: 30 mm
- Growth inhibition zones [2]: 30 mm
- Growth inhibition zones (Sarcina lutea ATCC 9341): 14 mm
- Growth inhibition zones [3]: 11 mm
- Growth inhibition zones [4]: 21 mm
- Growth inhibition zones [5]: 13 mm
- Growth inhibition zones [6]: 26 mm
- Growth inhibition zones (Candida albicans PCA6): 23 mm
- Growth inhibition zones (Candida albicans 2): 22 mm
- Growth inhibition zones (Candida parapsilosis): 20 mm
- Growth inhibition zones [8]: 22 mm

SMILES: O=[N+]([O-])c1ccc(-c2nc3cc(Cl)ccc3[nH]2)o1 [Es. 6, 5-chloro-2-(5'-nitro-2'-furyl)-benzimidazole]
- Growth inhibition zones [1]: 28 mm
- Growth inhibition zones [2]: 30 mm
- Growth inhibition zones [3]: 15 mm
- Growth inhibition zones [4]: 22 mm
- Growth inhibition zones [5]: 14 mm
- Growth inhibition zones [6]: 23 mm
- Growth inhibition zones [7]: 12 mm
- Growth inhibition zones (Candida albicans PCA6): 22 mm
- Growth inhibition zones (Candida albicans 1): 15 mm
- Growth inhibition zones (Candida albicans 2): 22 mm
- Growth inhibition zones (Candida parapsilosis): 21 mm
- Growth inhibition zones [8]: 13 mm

SMILES: O=[N+]([O-])c1ccc(-c2nc3ccccc3[nH]2)o1 [Es. 1, 2-(5'-nitro-2'-furyl)-benzimidazole]
- Growth inhibition zones [1]: 35 mm
- Growth inhibition zones [2]: 35 mm
- Growth inhibition zones (Sarcina lutea ATCC 9341): 15 mm
- Growth inhibition zones [3]: 22 mm
- Growth inhibition zones [4]: 24 mm
- Growth inhibition zones [5]: 20 mm
- Growth inhibition zones [6]: 36 mm
- Growth inhibition zones [7]: 18 mm
- Growth inhibition zones (Candida albicans PCA6): 40 mm
- Growth inhibition zones (Candida albicans 1): 25 mm
- Growth inhibition zones (Candida albicans 2): 42 mm
- Growth inhibition zones (Candida parapsilosis): 37 mm
- Growth inhibition zones (Cryptococcus albidus): 33 mm
- Growth inhibition zones (Aspergillus fumigatus): 22 mm
- Growth inhibition zones [8]: 24 mm

SMILES: O=[N+]([O-])c1ccc(-c2nc3cc(F)ccc3[nH]2)o1 [Es. 3, 5-fluoro-2-(5'-nitro-2'-furyl)-benzimidazole]
- Growth inhibition zones [1]: 28 mm
- Growth inhibition zones [2]: 29 mm
- Growth inhibition zones (Sarcina lutea ATCC 9341): 27 mm
- Growth inhibition zones [3]: 21 mm
- Growth inhibition zones [4]: 33 mm
- Growth inhibition zones [5]: 23 mm
- Growth inhibition zones [6]: 27 mm
- Growth inhibition zones (Candida albicans PCA6): 34 mm
- Growth inhibition zones (Candida albicans 1): 34 mm
- Growth inhibition zones (Candida albicans 2): 34 mm
- Growth inhibition zones (Candida parapsilosis): 34 mm
- Growth inhibition zones (Candida tropicalis): 25 mm
- Growth inhibition zones (Cryptococcus albidus): 35 mm
- Growth inhibition zones (Cryptococcus neoformans): 45 mm
- Growth inhibition zones (Rodutorula rubra): 35 mm
- Growth inhibition zones (Aspergillus fumigatus): 30 mm
- Growth inhibition zones (Torulopsis Candida): 42 mm
- Growth inhibition zones (Aspergillus Niger): 38 mm
- Growth inhibition zones (Aspergillus Flavus): 30 mm
- LD50 [9]: 240 mg/kg
- Growth inhibition zones [8]: 35 mm
